Experiments:
Test in all cases: Test E
PARK WHEAT = format: in vivo, Triticum aestivum cv. Park
BONANZA BARLEY = format: in vivo, Hordeum vulgare cv. Bonanza
BLACK NIGHTSHAD = format: in vivo, Solanum nigrum
LAMBSQUARTER = format: in vivo, Chenopodium album
SNTLS CHAMOMILE = format: in vivo, Matricaria indora
PERSN SPEEDWELL = format: in vivo, Veronica persica
MUSTARD SPP. = format: in vivo, Brassica spp.
JET RAPE = format: in vivo, Brassica napus cv. Jet Neuf

Structure (SMILES): C=C(c1ccccc1)C(O)(Cn1cncn1)c1ccc(F)cc1F (stereo not shown) [Example 52, 2-(2,4-Difluorophenyl)-3-phenyl-1-(1H-1,2,4-triazol-1-yl)-3-buten-2-ol]
- plant response (PARK WHEAT; POSTEMERGENCE 0064 GM/HA): 30%
- plant response (PARK WHEAT; POSTEMERGENCE 0125 GM/HA): 30%
- plant response (PARK WHEAT; POSTEMERGENCE 0250 GM/HA): 40%
- plant response (PARK WHEAT; POSTEMERGENCE 0500 GM/HA): 50%
- plant response (PARK WHEAT; PREEMERGENCE 0250 GM/HA): 70%
- plant response (BONANZA BARLEY; POSTEMERGENCE 0064 GM/HA): 0%
- plant response (BONANZA BARLEY; POSTEMERGENCE 0125 GM/HA): 20%
- plant response (BONANZA BARLEY; POSTEMERGENCE 0250 GM/HA): 20%
- plant response (BONANZA BARLEY; POSTEMERGENCE 0500 GM/HA): 40%
- plant response (BONANZA BARLEY; PREEMERGENCE 0250 GM/HA): 100%
- plant response (BLACK NIGHTSHAD; POSTEMERGENCE 0064 GM/HA): 0%
- plant response (BLACK NIGHTSHAD; POSTEMERGENCE 0125 GM/HA): 0%
- plant response (BLACK NIGHTSHAD; POSTEMERGENCE 0250 GM/HA): 10%
- plant response (BLACK NIGHTSHAD; POSTEMERGENCE 0500 GM/HA): 70%
- plant response (BLACK NIGHTSHAD; PREEMERGENCE 0250 GM/HA): 100%
- plant response (LAMBSQUARTER; POSTEMERGENCE 0064 GM/HA): 0%
- plant response (LAMBSQUARTER; POSTEMERGENCE 0125 GM/HA): 0%
- plant response (LAMBSQUARTER; POSTEMERGENCE 0250 GM/HA): 0%
- plant response (LAMBSQUARTER; POSTEMERGENCE 0500 GM/HA): 10%
- plant response (LAMBSQUARTER; PREEMERGENCE 0250 GM/HA): 100%
- plant response (SNTLS CHAMOMILE; POSTEMERGENCE 0064 GM/HA): 20%
- plant response (SNTLS CHAMOMILE; POSTEMERGENCE 0125 GM/HA): 50%
- plant response (SNTLS CHAMOMILE; POSTEMERGENCE 0250 GM/HA): 50%
- plant response (SNTLS CHAMOMILE; POSTEMERGENCE 0500 GM/HA): 85%
- plant response (SNTLS CHAMOMILE; PREEMERGENCE 0250 GM/HA): 100%
- plant response (PERSN SPEEDWELL; POSTEMERGENCE 0064 GM/HA): 40%
- plant response (PERSN SPEEDWELL; POSTEMERGENCE 0125 GM/HA): 30%
- plant response (PERSN SPEEDWELL; POSTEMERGENCE 0250 GM/HA): 60%
- plant response (PERSN SPEEDWELL; POSTEMERGENCE 0500 GM/HA): 90%
- plant response (PERSN SPEEDWELL; PREEMERGENCE 0250 GM/HA): 100%
- plant response (MUSTARD SPP.; POSTEMERGENCE 0064 GM/HA): 0%
- plant response (MUSTARD SPP.; POSTEMERGENCE 0125 GM/HA): 0%
- plant response (MUSTARD SPP.; POSTEMERGENCE 0250 GM/HA): 20%
- plant response (MUSTARD SPP.; POSTEMERGENCE 0500 GM/HA): 50%
- plant response (MUSTARD SPP.; PREEMERGENCE 0250 GM/HA): 50%
- plant response (JET RAPE; POSTEMERGENCE 0064 GM/HA): 0%
- plant response (JET RAPE; POSTEMERGENCE 0125 GM/HA): 0%
- plant response (JET RAPE; POSTEMERGENCE 0250 GM/HA): 20%
- plant response (JET RAPE; POSTEMERGENCE 0500 GM/HA): 40%
- plant response (JET RAPE; PREEMERGENCE 0250 GM/HA): 20%

Structure (SMILES): C=C(c1ccc(Cl)cc1Cl)C(O)(Cn1cncn1)c1ccccc1F (stereo not shown) [Example 107]
- plant response (PARK WHEAT; PREEMERGENCE 0250 GM/HA): 30%
- plant response (BONANZA BARLEY; PREEMERGENCE 0250 GM/HA): 80%
- plant response (BLACK NIGHTSHAD; PREEMERGENCE 0250 GM/HA): 80%
- plant response (LAMBSQUARTER; PREEMERGENCE 0250 GM/HA): 90%
- plant response (SNTLS CHAMOMILE; PREEMERGENCE 0250 GM/HA): 70%
- plant response (PERSN SPEEDWELL; PREEMERGENCE 0250 GM/HA): 100%
- plant response (MUSTARD SPP.; PREEMERGENCE 0250 GM/HA): 20%
- plant response (JET RAPE; PREEMERGENCE 0250 GM/HA): 30%

Structure (SMILES): C=C(c1ccc(F)cc1)C(O)(Cn1cncn1)c1ccccc1F (stereo not shown) [Example 644]
- plant response (PARK WHEAT; POSTEMERGENCE 0064 GM/HA): 0%
- plant response (PARK WHEAT; POSTEMERGENCE 0125 GM/HA): 20%
- plant response (PARK WHEAT; POSTEMERGENCE 0250 GM/HA): 30%
- plant response (PARK WHEAT; POSTEMERGENCE 0500 GM/HA): 40%
- plant response (PARK WHEAT; PREEMERGENCE 0500 GM/HA): 30%
- plant response (BONANZA BARLEY; POSTEMERGENCE 0064 GM/HA): 0%
- plant response (BONANZA BARLEY; POSTEMERGENCE 0125 GM/HA): 20%
- plant response (BONANZA BARLEY; POSTEMERGENCE 0250 GM/HA): 20%
- plant response (BONANZA BARLEY; POSTEMERGENCE 0500 GM/HA): 40%
- plant response (BONANZA BARLEY; PREEMERGENCE 0500 GM/HA): 50%
- plant response (BLACK NIGHTSHAD; POSTEMERGENCE 0064 GM/HA): 0%
- plant response (BLACK NIGHTSHAD; POSTEMERGENCE 0125 GM/HA): 0%
- plant response (BLACK NIGHTSHAD; POSTEMERGENCE 0250 GM/HA): 10%
- plant response (BLACK NIGHTSHAD; POSTEMERGENCE 0500 GM/HA): 20%
- plant response (BLACK NIGHTSHAD; PREEMERGENCE 0500 GM/HA): 0%
- plant response (LAMBSQUARTER; POSTEMERGENCE 0064 GM/HA): 0%
- plant response (LAMBSQUARTER; POSTEMERGENCE 0125 GM/HA): 0%
- plant response (LAMBSQUARTER; POSTEMERGENCE 0250 GM/HA): 20%
- plant response (LAMBSQUARTER; POSTEMERGENCE 0500 GM/HA): 40%
- plant response (LAMBSQUARTER; PREEMERGENCE 0500 GM/HA): 85%
- plant response (SNTLS CHAMOMILE; POSTEMERGENCE 0064 GM/HA): 20%
- plant response (SNTLS CHAMOMILE; POSTEMERGENCE 0125 GM/HA): 50%
- plant response (SNTLS CHAMOMILE; POSTEMERGENCE 0250 GM/HA): 50%
- plant response (SNTLS CHAMOMILE; POSTEMERGENCE 0500 GM/HA): 90%
- plant response (SNTLS CHAMOMILE; PREEMERGENCE 0500 GM/HA): 100%
- plant response (PERSN SPEEDWELL; POSTEMERGENCE 0064 GM/HA): 0%
- plant response (PERSN SPEEDWELL; POSTEMERGENCE 0125 GM/HA): 20%
- plant response (PERSN SPEEDWELL; POSTEMERGENCE 0250 GM/HA): 40%
- plant response (PERSN SPEEDWELL; POSTEMERGENCE 0500 GM/HA): 80%
- plant response (PERSN SPEEDWELL; PREEMERGENCE 0500 GM/HA): 50%
- plant response (MUSTARD SPP.; POSTEMERGENCE 0064 GM/HA): 20%
- plant response (MUSTARD SPP.; POSTEMERGENCE 0125 GM/HA): 20%
- plant response (MUSTARD SPP.; POSTEMERGENCE 0250 GM/HA): 50%
- plant response (MUSTARD SPP.; POSTEMERGENCE 0500 GM/HA): 50%
- plant response (MUSTARD SPP.; PREEMERGENCE 0500 GM/HA): 0%
- plant response (JET RAPE; POSTEMERGENCE 0064 GM/HA): 0%
- plant response (JET RAPE; POSTEMERGENCE 0125 GM/HA): 0%
- plant response (JET RAPE; POSTEMERGENCE 0250 GM/HA): 0%
- plant response (JET RAPE; POSTEMERGENCE 0500 GM/HA): 30%
- plant response (JET RAPE; PREEMERGENCE 0500 GM/HA): 20%

— US4965280A, “Antifungal carbinols” (E. I. Du Pont de Nemours and Company, priority 1989, dated 1990)
